Test results: PubChem BioAssay (NCI)
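Dose response: 5 concentrations. Exposure: 48 h. Format: 96-well plates. Endpoint: linear interpolation; highest concentration if not reached. Abbreviation: GI50, concentration required for 50% inhibition of growth. TGI: concentration producing complete growth inhibition.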 Where a SMILES comes first, the peptide text is derived from it. Bridges are numbered along the chain shown (N, C = ends). Roman numbers before positions name the chains, in order. [ ]: non-standard residue; d: D form. The star is where a group is joined. Heptadecanoyl = CCCCCCCCCCCCCCCCC(=O)*; Phg = N[CH](C(=O)O)c1ccccc1

Columns and labels:
Assay in all cases: NCI-60 cell line screen, 48 h
[1] = test system: COLO 205 colon
[2] = test system: HOP-62 NSCLC
[3] = test system: LOX IMVI melanoma
[4] = test system: OVCAR-5 ovarian
[5] = test system: SK-MEL-2 melanoma
[6] = test system: SNB-75 CNS
[7] = test system: SR leukemia
[8] = test system: SW-620 colon
[9] = test system: TK-10 renal
[10] = test system: U251 CNS
[11] = test system: A498 renal

| Compound | TGI [1] [µM] | TGI [2] [µM] | TGI [3] [µM] | TGI [4] [µM] | TGI [5] [µM] | TGI [6] [µM] | TGI [7] [µM] | TGI [8] [µM] | TGI [9] [µM] | TGI [10] [µM] | TGI [11] [µM] | GI50 [11] [µM] | GI50 [1] [µM] | GI50 [2] [µM] | GI50 [4] [µM] | GI50 [5] [µM] | GI50 [6] [µM] | GI50 [8] [µM] | GI50 [9] [µM] |
| --- | --- | --- | --- | --- | --- | --- | --- | --- | --- | --- | --- | --- | --- | --- | --- | --- | --- | --- | --- |
| CC(=O)OCC1OC(OC2CC3C(C)(C)C(=O)CC[C@]3(C)C3CC[C@]45C[C@]4(CCC5[C@@H](C)CC(O)C(O)C(C)(C)O)[C@]23C)C(O)C(O)C1O (stereo partly drawn) | 18.5 | 33.8 | 12.6 | 30.8 | 17.1 | 18.8 | 16.9 | 26 | 28.1 | 20.3 | – | – | – | – | – | – | – | – | – |
| CC[C@@H]1C[C@@H](O)[C@@H]2[C@H](O)[C@H](O)CN2C1 | > 100 | – | > 100 | > 100 | > 100 | > 100 | – | > 100 | > 100 | > 100 | > 100 | – | – | – | – | – | – | – | – |
| O=C1c2ccc3ccccc3c2CCC1N1CCCCC1 (stereo not drawn) | 42.1 | 34 | 33.7 | 37.9 | 44.4 | 34.3 | 36.6 | 34.5 | 29.6 | 33.1 | – | – | – | – | – | – | – | – | – |
| Cc1c(C)c(C)c(CSC(=N)N)c(C)c1C | 28.1 | 29.1 | 79.2 | 29.8 | 27.8 | 29 | – | 29 | 28.4 | 26.4 | 29.8 | – | – | – | – | – | – | – | – |
| Cc1cc(-c2ccc(Cl)cc2)c(C#N)c(=S)n1C1OC(CO)C(O)C(O)C1O (stereo not drawn) | > 100 | > 100 | > 100 | > 100 | > 100 | 78.7 | > 100 | > 100 | > 100 | – | > 100 | – | – | – | – | – | – | – | – |
| CC1CC(=O)NC2CC1C2(C)C (stereo not drawn) | > 100 | – | > 100 | > 100 | > 100 | > 100 | > 100 | > 100 | > 100 | > 100 | – | – | – | – | – | – | – | – | – |
| CCCCCCCCCCCCCCCCC(=O)N1CCCC1C(=O)NCC(=O)NC(C(=O)N1CCCC1C(=O)NC(CO)C(=O)NC(Cc1ccc(O)cc1)C(=O)NC(CCCCNC(=O)C1CCCN1C(=O)C(CCCCN)NC(=O)C(CCCCN)NC(=O)C(CCCCN)NC(=O)C(CCCNC(=N)N)NC(=O)C(CCCCN)NC(=O)C(N)C(C)C)C(=O)NC(CC(C)C)C(=O)NC(CCCNC(=N)N)C(=O)N1CCCC1C(=O)NCC(N)=O)c1ccccc1 (stereo not drawn) (I: Heptadecanoyl-PG[Phg]PSYKLRPG-NH2 / II: H-VKRKKKP; amide I:7-II:C; configuration not given here) | 18.4 | > 100 | – | > 100 | > 100 | > 100 | – | > 100 | 66.6 | – | > 100 | 76.3 | 4.75 | 32.3 | 34.3 | 50.3 | 54.2 | 40.5 | 26.5 |
| O=C(O)CCCC#CCCCC(=O)O | > 100 | > 100 | > 100 | > 100 | > 100 | > 100 | > 100 | – | > 100 | > 100 | > 100 | – | – | – | – | – | – | – | – |
| CN(C)C(=S)SCc1ccccc1 | > 100 | > 100 | > 100 | > 100 | > 100 | 70.3 | – | > 100 | > 100 | > 100 | > 100 | – | – | – | – | – | – | – | – |
| CC(C)C(/C=C/c1ccc(Cl)cc1)=N\NC(=S)NN | > 100 | > 100 | 33.7 | > 100 | 44.5 | 91.8 | – | > 100 | > 100 | > 100 | > 100 | – | – | – | – | – | – | – | – |
| O=C1c2cccnc2-c2nccc3ccnc1c23 | 1.12 | 7.95 | 2.22 | 4.2 | 4.64 | 5.92 | – | 1.78 | – | 3.49 | 13 | – | – | – | – | – | – | – | – |
| CC1OC2OC3C(OCC(O)C3O)OC(=O)[C@]34CCC(C)(C)CC3C3=CCC5[C@@]6(C)C[C@H](O)[C@H](OC7OC(CO)C(O)C(O)C7OC7OC(COC(=O)CC(C)(O)CC(=O)OC1C(O)C2O)C(O)C(O)C7O)[C@@](C)(CO)C6CC[C@@]5(C)[C@]3(C)CC4 (stereo partly drawn) | 2.98 | 2.69 | 2.91 | 2.85 | 2.85 | 2.89 | – | 2.44 | 2.89 | 2.91 | – | – | – | – | – | – | – | – | – |
| O=C1CCC2(c3ccc(F)cc3)Nc3ncncc3N12 (stereo not drawn) | – | – | > 10 | > 10 | > 10 | > 10 | > 10 | > 10 | > 10 | > 10 | – | – | – | – | – | – | – | – | – |
| CCCCC/C(=N\c1nc[nH]c1C(N)=O)OCC | > 100 | > 100 | > 100 | > 100 | > 100 | – | > 100 | > 100 | > 100 | > 100 | > 100 | – | – | – | – | – | – | – | – |
| CCOC(=O)c1cc(C2(OC)CCN(Cc3ccccc3)C2=O)c(-c2cc(C)no2)[nH]1 (stereo not drawn) | > 100 | > 100 | – | > 100 | > 100 | > 100 | – | > 100 | > 100 | > 100 | > 100 | – | – | – | – | – | – | – | – |
| Cc1ccc(C(=O)Nc2ccc(CP(=O)(O)O)cc2)cc1NC(=O)Nc1cc(C(=O)Nc2ccc(CP(=O)(O)O)cc2)ccc1C | > 100 | > 100 | > 100 | > 100 | > 100 | > 100 | – | > 100 | > 100 | > 100 | > 100 | – | – | – | – | – | – | – | – |
| Cc1cccc(C(O)c2ccccn2)c1O (stereo not drawn) | > 100 | > 100 | > 100 | > 100 | – | > 100 | > 100 | > 100 | > 100 | > 100 | – | – | – | – | – | – | – | – | – |
| Cc1c(C)c2ccc(O)cc2[nH]c1=O | > 100 | > 100 | > 100 | > 100 | > 100 | > 100 | > 100 | > 100 | – | > 100 | > 100 | – | – | – | – | – | – | – | – |
| c1ccc(-c2cc(-c3cc(-c4ccccc4)no3)on2)cc1 | > 100 | > 100 | > 100 | > 100 | > 100 | – | 31.3 | > 100 | > 100 | > 100 | > 100 | – | – | – | – | – | – | – | – |
| N=C(N)c1ccc(-c2ccc(-c3ccc(C(=N)N)cc3)o2)cc1 | 43.2 | > 100 | – | 99.2 | 59.2 | > 100 | > 100 | > 100 | 63 | 34.7 | > 100 | – | – | – | – | – | – | – | – |
